Here are results for eight compounds from US11236088B2, “Heterocyclic compounds and their application in medicine” (KIND PHARMACEUTICAL, priority 2017, dated 2022).

This test relates to MCF-7 cells. Briefly: Inhibitory effect on the growth of MCF-7 cells (CellTiter-Glo, 10 days). It counts as cell-based. The following applies: Homo sapiens, MCF7, 240 h, 10 days incubation, CellTiter-Glo chemiluminescence. As to the method:
Assay 2: Inhibitory effect of compounds of the present invention on the growth of MCF-7 cells by a cell drug inhibition experiment
1. Experimental Materials
1) Reagents: DMEM high glucose medium (Lonza #12-604F), FBS (BI #04-00F1ACS), antibiotics (Thermofisher #15070063), bovine insulin (Western reagent #11070-73-8), trypsin (Thermofisher #25200-056), CellTiter-Glo reagent (Promega #G7571)
2) Instruments: American MD-M5 microplate reader 5;
2. Experimental Procedures:
1) 100 μl of MCF-7 cells was added to a medium in a white opaque 96-well plate at a density of 5000 cells/ml in which the medium is DMEM high-glucose medium supplemented with 10% FBS. The cells were cultured in a 5% CO2 cell incubator at 37° C. for 24 hours.
2) Different concentrations of corresponding compounds were added to the 96-well plate for incubating MCF-7 cells. The cells were incubated for 10 days in a 5% CO2 cell incubator.
3) To each well of MCF-7 cells, 100 μl of CellTiter-Glo reagent was added and then set aside at room temperature for 10 minutes. The chemiluminescence signal was read using an MD-M5 microplate reader, and the data was processed using GraphPad Prism to calculate IC50 value.
Broadly, the IC50 is the midpoint of a concentration-inhibition curve. A low value points to greater potency in that assay. `CC(C)CN1CC(Sc2cc(F)c([C@@H]3c4ccc5[nH]ncc5c4CN(C)[C@H]3CC3CC3)c(F)c2)C1` [Example 28, (6S, 7S)-6-(4-((1-isobutylazetidin-3-yl)thio)-2,6-difluorophenyl)-7-cyclopropylmethyl-8-methyl-6,7,8,9-tetrahydro-3H-pyrazolo [3,4-h]isoquinoline]: the IC50 is over 1000 nM.
Under `CCCCCN1CC(Sc2cc(F)c([C@@H]3c4ccc5[nH]ncc5c4CN(C)[C@H]3CC3CC3)c(F)c2)C1` [Example 29, (6S, 7S)-7-cyclopropylmethyl-6-(2,6-difluoro-4-((1-pentylazetidin-3-yl)thio)phenyl)-8-methyl-6,7,8,9-tetrahydro-3H-pyrazolo [3,4-h]isoquinoline] stands over 1000 nM.
Under `CC(C)C[C@H]1[C@H](c2c(F)cc(OC3CN(C=O)C3)cc2F)c2ccc3[nH]ncc3c2CN1C` [Example 30, 3-(3,5-difluoro-4-((6S, 7S)-7-isobutyl-8-methyl-6,7,8,9-tetrahydro-3H-pyrazolo [3,4-h]isoquinolin-6-yl)phenoxy) azetidin-1-aldehyde] stands at most 1 nM; under `CC(=O)N1CC(Oc2cc(F)c([C@@H]3c4ccc5[nH]ncc5c4CN(C)[C@H]3CC(C)C)c(F)c2)C1` [Example 31, 1-(3-(3,5-difluoro-4-((6S, 7S)-7-isobutyl-8-methyl-6,7,8,9-tetrahydro-3H-pyrazolo [3,4-h]isoquinolin-6-yl)phenoxy)azetidin-1-yl) ethan-1-one], at most 1 nM; under `CCC(=O)N1CC(Oc2cc(F)c([C@@H]3c4ccc5[nH]ncc5c4CN(C)[C@H]3CC(C)C)c(F)c2)C1` [Example 32, 1-(3-(3,5-difluoro-4-((6S, 7S)-7-isobutyl-8-methyl-6,7,8,9-tetrahydro-3H-pyrazolo [3,4-h]isoquinolin-6-yl)phenoxy)azetidin-1-yl) propan-1-one], at most 1 nM.
With `CCCC(=O)N1CC(Oc2cc(F)c([C@@H]3c4ccc5[nH]ncc5c4CN(C)[C@H]3CC(C)C)c(F)c2)C1` [Example 33, 1-(3-(3,5-difluoro-4-((6S, 7S)-7-isobutyl-8-methyl-6,7,8,9-tetrahydro-3H-pyrazolo [3,4-h]isoquinolin-6-yl)phenoxy)azetidin-1-yl) butan-1-one] the figure was 10 to 1000 nM.
In turn, `CC(C)C[C@H]1[C@H](c2c(F)cc(OC3CN(C(=O)C(C)C)C3)cc2F)c2ccc3[nH]ncc3c2CN1C` [Example 34, 1-(3-(3,5-difluoro-4-((6S, 7S)-7-isobutyl-8-methyl-6,7,8,9-tetrahydro-3H-pyrazolo [3,4-h]isoquinolin-6-yl)phenoxy)azetidin-1-yl)-2-methylpropan-1-one] had an IC50 of 1 to 10 nM.
With `C[C@]12CC[C@@H]3c4ccc(O)cc4C[C@@H](CCCCCCCCC[S+]([O-])CCCC(F)(F)C(F)(F)F)[C@H]3[C@@H]1CC[C@@H]2O` (some centres unmarked) [Fulvestrant, reference compound] the figure was 10 to 1000 nM.
